Earlier results, collected in patent US11737985B2 (priority 2013, dated 2023).
Like-named read-outs stand apart in the source and are kept apart here.

Tests used:
[1] = in vivo; cited from earlier work
[2] = cited from earlier work; for mean concentration in plasma: cancer patients; for Cmax / Tmax: single dose 182 mg controlled-release tablet

## NNc1nncc2ccccc12 [hydralazine, 1-hydrazinophthalazine]
[1]
  systemic clearance: approximately 50 ml/kg/min
[2]; fast acetylators, 182 mg daily controlled-release
  mean concentration in plasma: 239.1 ng/mL
[2]; slow acetylators, 83 mg daily controlled-release
  mean concentration in plasma: 259.2 ng/mL
[2]; fast acetylators, ± SD
  Cmax: 208.4 ± 56.9 ng/mL
[2]; fast acetylators
  Tmax: 2.8 ± 2.5 h
[2]; slow acetylators
  Cmax: 470.4 ± 162.8 ng/mL
  Tmax: 4.4 ± 3.1 h
